Results on two compounds are retold here after patent US5750546A, “2-(2, 3, 5, 6-tetrafluoro-4-pyridyl)-1, 2, 5-thiadiazolidin-3-one 1, 1-dioxides and compositions and method of use thereof” (Sanofi Winthrop, Inc., priority 1994, dated 1998).

This experiment addresses T1, human leukocyte elastase (Homo sapiens, UniProt P08246).
T1 sequence (P08246 30-267): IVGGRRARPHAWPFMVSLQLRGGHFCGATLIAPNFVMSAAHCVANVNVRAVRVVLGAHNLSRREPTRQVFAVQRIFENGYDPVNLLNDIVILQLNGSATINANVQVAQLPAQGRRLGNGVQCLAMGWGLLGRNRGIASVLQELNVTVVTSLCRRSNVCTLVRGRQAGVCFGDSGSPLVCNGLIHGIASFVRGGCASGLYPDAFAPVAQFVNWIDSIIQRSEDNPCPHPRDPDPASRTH
Nature of the experiment: human leukocyte elastase inhibition assay (progress curves, MeOSuc-Ala-Ala-Pro-Val-pNA substrate). Type of experiment: biochemical. To be noted: in vitro, pH 7.8 at 25° C., absorbance 410 nm, read-out: Ki, human leukocyte elastase inhibitory activity. On the procedure: The test compound (inhibitor) is dissolved in DMSO in a vial to produce an inhibitor stock solution which has a concentration in the range of 200-1000μM. The inhibitor stock solution is diluted (1:4, 1:16 and 1:64) into assay vials (vials 1, 2 and 3 respectively) containing 2.4 mL of buffer solution (50 mM N-[2-hydroxyethyl] piperazine-N'-[2-ethanesulfonic acid]/NaOH, 500 mM NaCl, pH 7.8 at 25° C.) and DMSO is added so that the total volume in each vial is 3.2 mL. 70 μL, 50 μL, 35 μL and 25 μL of inhibitor from assay vial 1 is placed into the first four wells of a 96-well microtiter plate and each well is made up to 90 μL total volume with the addition of a 25% DMSO/buffer solution. […]
The 96-well microtiter plate is placed into a Microplate Reader #89815A spectrophotometer and 110 μL of the enzyme solution (prepared as follows: a mixture of 20 mL of buffer solution and 20 mg of bovine serum albumen is gently vortexed in a scintillation vial and 5 μL HLE stock solution (1 mg/mL dissolved in deionized water) is added) is added simultaneously to each of the 16 wells. Each of the solutions in the wells is throughly mixed and then the time-dependent absorbance data is collected at an absorbance of 410 nm until the assay is complete. […]
A plot of the absorbance versus time data thus obtained affords progress curves the final slope of which is equal to the final steady-state velocities (VF). […]

Where only a bound is given, the exact number is not on record here.

For the compound `CC(C)CCC1C(=O)N(c2c(F)c(F)nc(F)c2F)S(=O)(=O)N1C` (centres unmarked) [2(h), 2-(2,3,5,6-tetrafluoro-4-pyridyl)-5-methyl-4-(3-methylbutyl)-1,2,5-thiadiazolidin-3-one 1,1-dioxide], the Ki was greater than 0.1 µM.
`CCCC1C(=O)N(c2c(F)c(F)nc(F)c2F)S(=O)(=O)N1C` (centres unmarked) [Example 1(g), 2-(2,3,5,6-tetrafluoro-4-pyridyl)-5-methyl-4-propyl-1,2,5-thiadiazolidin-3-one 1,1-dioxide]: the inhibitory constant (Ki) is 0.01 µM.
